# Measured values as given in PMC11864979, “First-in-class ultralong-target-residence-time p38α inhibitors as a mitosis-targeted therapy for colorectal cancer” (Nature Cancer, 2025).
# pIC50: −log10 of the molar value. Values joined by “and” are separate entries in the source; they are usually repeats but may differ in a detail not shown here. Identical values can stand only once.
# What was measured:
# [1] = tested on: PDO4; test: cell viability in patient-derived CRC organoids PDO4; format: cell-based, human; settings: Fig. 3e, replicates
# Procedure: (§1) For in vitro treatment studies, organoids were mechanically dissociated and digested using TrypLE supplemented with 100 µg ml^−1 DNaseI and 10.5 µM Y-27632 dihydrochloride (Invitrogen) at 37 °C. A total of 1,000–2,000 single cells were plated per well in white 96-well plates (Greiner) in culture medium containing 10% GFR Matrigel or Cultrex BME. The treatment with doxycycline (5 µg ml^−1), pharmacological inhibitors or corresponding volumes of DMSO was started 24 h after plating. Doxycycline was obtained from Sigma-Aldrich. […] Cell viability was measured by means of CellTiter-Glo 3D or CellTiter-Glo 2.0 reagent (Promega) according to the manufacturers’ instructions and the Infinite M Plex reader (Tecan, i-control version 3.9.1 software). Results were normalized to vehicle (DMSO) or to shNC. For cell-doubling assays, the cell number was quantified at the corresponding time points using Guava EasyCyte flow cytometer (Luminex, CytoSoft v5.2 software).
# [2] = tested on: HCT 116; test: cell viability in human CRC cell line HCT 116; format: cell-based
# Procedure: To generate KAP^2D cells, KAP organoids were isolated from Matrigel, fragmented by mechanical dissociation and plated without any extracellular matrix on common cell culture dishes. Phoenix-Eco packaging cells (CRL-3214), HCT-15 (CCL-225), HCT 116 (CCL-247), COLO 205 (CCL-222), LS 174T (CL-188), RKO (CRL-2577) and HT-29 (HTB-38) were obtained from the American Type Culture Collection. The cells were cultured at 37 °C and 7% CO2 with RPMI (KAP^2D cells) or DMEM (other cell lines), supplemented with 10% FBS and penicillin–streptomycin. KAP^2D cells were authenticated using PCR (Kras locus and Trp53 locus). Phoenix-Eco packaging cells and HCT-15, HCT 116, COLO 205, LS 174T, RKO and HT-29 cells were authenticated by the provider using short tandem repeat profiling. No commonly misidentified cell lines were used. Mycoplasma contamination was excluded by a PCR-based analysis.
# as §1
# [3] = tested on: PDO3; test: cell viability in patient-derived CRC organoids PDO3; format: cell-based, human; settings: Fig. 3d, replicates
# Procedure: as §1
# [4] = tested on: KAP^2D cells; test: quantification of viable KAP^2D cells over time (cell-doubling assay); format: cell-based, mouse; settings: Fig. 4i
# Procedure: The treatment with doxycycline (5 µg ml^−1), pharmacological inhibitors or corresponding volumes of DMSO was started 24 h after plating. […] Cell viability was measured by means of CellTiter-Glo 3D or CellTiter-Glo 2.0 reagent (Promega) according to the manufacturers’ instructions and the Infinite M Plex reader (Tecan, i-control version 3.9.1 software). Results were normalized to vehicle (DMSO) or to shNC. For cell-doubling assays, the cell number was quantified at the corresponding time points using Guava EasyCyte flow cytometer (Luminex, CytoSoft v5.2 software).
# [5] = tested on: PDO2; test: cell viability in patient-derived CRC organoids PDO2; format: cell-based, human; settings: Fig. 3c, replicates
# Procedure: as §1
# [6] = molecular target: p38α (Homo sapiens, UniProt Q16539); test: target residence time (TRT) fluorescence polarization jump-dilution assay; format: binding
# Procedure: TRTs were determined using a fluorescence polarization assay kit (Transcreener ADP, BellBrook Labs)[29]. […] The formed complex was ‘jump-diluted’ 1:100 (0.5 µl in 49.5 µl) in a 96-half-area-well plate with ATF2 (82 μM), ATP (40 μM) and ADP as the kinase assay detection reagents. The plate was measured every 3 min for 4 h. Fluorescence polarization was detected using the plate reader VictorNivo (PerkinElmer). The data were analyzed using the integrated rate equation in GraphPad Prism version 7.03 software. The residence time was calculated from the reciprocal value of koff.
# [7] = tested on: KAP^2D cells; test: western blot analysis of p38α signaling in KAP^2D cells; format: cell-based, mouse; settings: 1 µM, 1 day
# Procedure: Proteins were extracted from cells and organoids using radioimmunoprecipitation assay extraction buffer (50 mM Tris pH 8.0, 150 mM NaCl, 1% Triton X-100, 0.5% sodium deoxycholate, 0.1% SDS, 5 mM EDTA and 1 mM EGTA) supplemented with protease and phosphatase inhibitors (cOmplete and PhosSTOP, Roche). Protein concentrations were measured using the DC (detergent compatible) Protein Assay (Bio-Rad). Briefly, 20–30 µg of protein was separated by SDS–PAGE and transferred onto PVDF membranes (Immobilon-P, Millipore). Membranes were blocked in 5% BSA and Tris-buffered saline (TBS)–Tween buffer and then incubated with primary antibodies overnight at 4 °C and with horseradish peroxidase-conjugated secondary antibodies for 1 h at room temperature. All used antibodies and dilutions are listed in the Nature Portfolio Reporting Summary. The blots were visualized using the ChemiDoc MP Imaging System (BIO-RAD) and ImageLab version 5.2.1 software. Vinculin and β-actin were used as loading controls.
# [8] = tested on: PDO1; test: cell viability in patient-derived CRC organoids PDO1; format: cell-based, human; settings: Fig. 3b, replicates
# Procedure: as §1
# [9] = tested on: KMP organoids; test: cell viability in KMP organoids; format: cell-based, mouse
# Procedure: A total of 1,000–2,000 single cells were plated per well in white 96-well plates (Greiner) in culture medium containing 10% GFR Matrigel or Cultrex BME. The treatment with doxycycline (5 µg ml^−1), pharmacological inhibitors or corresponding volumes of DMSO was started 24 h after plating. Doxycycline was obtained from Sigma-Aldrich. […] Results were normalized to vehicle (DMSO) or to shNC. For cell-doubling assays, the cell number was quantified at the corresponding time points using Guava EasyCyte flow cytometer (Luminex, CytoSoft v5.2 software).
# [10] = tested on: PDO5; test: cell viability in patient-derived CRC organoids PDO5; format: cell-based, human; settings: Fig. 3f, replicates
# Procedure: as §1
# [11] = tested on: PDO10; test: cell viability in patient-derived CRC organoids PDO10; format: cell-based, human
# Procedure: as §1
# Chain of p38α (Q16539 whole entry): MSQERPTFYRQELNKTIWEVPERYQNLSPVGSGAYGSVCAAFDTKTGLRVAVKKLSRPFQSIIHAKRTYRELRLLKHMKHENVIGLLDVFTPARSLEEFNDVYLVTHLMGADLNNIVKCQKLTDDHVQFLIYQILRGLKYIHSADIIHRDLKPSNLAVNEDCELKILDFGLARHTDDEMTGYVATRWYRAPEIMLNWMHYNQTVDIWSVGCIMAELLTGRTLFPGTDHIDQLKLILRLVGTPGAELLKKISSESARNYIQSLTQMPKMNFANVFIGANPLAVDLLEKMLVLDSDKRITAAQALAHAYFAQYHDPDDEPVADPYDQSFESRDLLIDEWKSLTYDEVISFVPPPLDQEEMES
smiles,measurement,setting,value
CNC(=O)c1ccc2c(c1)C(=O)c1ccc(Nc3ccc(F)c(NC(=O)C4CC4)c3)cc1CC2 [Compound 2015],Cell viability (%),"[1]; 0,5 µM, 5 µM",13.84% and 14.01%
same,Cell viability (%),"[1]; 0,25 µM, 25 µM",62.38% and 62.93%
same,Cell viability (%),[1]; 1 µM,11.63% and 11.83%
same,viability at 25 µM,"[1]; Homo sapiens, 0,25 µM",60%
same,viability at 1 µM,"[1]; Homo sapiens, 1 µM",11.2%
same,HCT 116 Cell viability (%),"[2]; 0.0137 µM, 4 d",85.88% and 79.68% and 90.88% and 87.20%
same,HCT 116 Cell viability (%),"[2]; 0.0412 µM, 4 d",87.17% and 85.37% and 79.18% and 81.34% and 80.02%
same,HCT 116 Cell viability (%),"[2]; 0.1235 µM, 4 d",87.59% and 86.63% and 89.97% and 77.29% and 78.27%
same,HCT 116 Cell viability (%),"[2]; 0.3704 µM, 4 d",48.15% and 38.21% and 37.69% and 25.63% and 24.67% and 24.34%
same,HCT 116 Cell viability (%),"[2]; 1.1111 µM, 4 d",30.94% and 32.21% and 17.75% and 19.27% and 17.57%
same,pIC50,"[2]; Homo sapiens, 96 h, HCT 116, 4 d of treatment",6.65
same,viability at 0.0137 µM,"[2]; Homo sapiens, HCT-116, 96 h, 0.0137 µM, 4 d, read-out: HCT 116 Cell viability (%)",90.6%
same,viability at 0.0412 µM,"[2]; Homo sapiens, HCT-116, 96 h, 0.0412 µM, 4 d, read-out: HCT 116 Cell viability (%)",90.7%
same,viability at 0.1235 µM,"[2]; Homo sapiens, HCT-116, 96 h, 0.1235 µM, 4 d, read-out: HCT 116 Cell viability (%)",90.7%
same,viability at 1.1111 µM,"[2]; Homo sapiens, HCT-116, 96 h, 1.1111 µM, 4 d",28.5%
same,Cell viability (%),"[3]; 0,5 µM, 5 µM",69.11% and 51.45%
same,Cell viability (%),"[3]; 0,25 µM, 25 µM",56.63% and 78.13% and 87.76%
same,Cell viability (%),[3]; 1 µM,56.28% and 48.78%
same,viability at 5 µM,"[3]; Homo sapiens, 72 h, 0,5 µM",50.1%
same,viability at 1 µM,"[3]; Homo sapiens, 72 h, 1 µM",53%
same,Number of cells,[4]; 0 h of treatment,41307.05 and 44263.95 and 43595.63 and 48502.24 and 40389.64
same,Number of cells,[4]; 12 h of treatment,56623.49 and 67064.09 and 57491.63 and 61648.82 and 68603.21 and 63323.28
same,Number of cells,[4]; 24 h of treatment,66705.14 and 74668.97 and 68938.05 and 94046.77 and 77517.08 and 74107.42
same,Number of cells,[4]; 36 h of treatment,95730.63 and 106064.51 and 93579.45 and 106339.60 and 110499.20 and 87144.95
same,Number of cells,[4]; 48 h of treatment,89649.37 and 121264.28 and 95171.59 and 108694.60 and 121883.40 and 116976.50
same,Number of cells,[4]; 60 h of treatment,136203.08 and 127468.86 and 129997.76 and 163066.30 and 164108.30 and 135189.10
same,Cell viability (%),"[5]; 0,5 µM, 5 µM",17.11% and 9.01% and 7.93%
same,Cell viability (%),"[5]; 0,25 µM",30.33% and 26.25%
same,Cell viability (%),[5]; 1 µM,8.07% and 8.23%
same,viability at 1 µM,"[5]; Homo sapiens, 1 µM",10.5%
same,TRT,"[6]; Fig. 2e, replicates",4961.7 s and 5666.0 s and 5182.4 s
same,TRT,[6]; reciprocal of koff,"5,270 s"
same,MK2^T334 phosphorylation (in words),[7],strongly reduced
same,Cell viability (%),[8]; 0.5 µM,8.84% and 9.77%
same,Cell viability (%),[8]; 1 µM,9.82% and 5.19%
same,viability at 0.5 µM,"[8]; Homo sapiens, 0.5 µM",10.1%
same,viability at 1 µM,"[8]; Homo sapiens, 1 µM",7.92%
same,therapeutic effect in KMP organoids (in words),[9]; 4 days,increased responsiveness
same,Cell viability (%),"[9]; Fig. 2i, 0,5 µM, replicates, 5 µM",17.63% and 7.81% and 29.91%
same,Cell viability (%),"[9]; Fig. 2i, 0,25 µM, replicates",27.91% and 21.06%
same,Cell viability (%),"[9]; Fig. 2i, 1 µM, replicates",17.15% and 26.00%
same,viability at 1 µM,"[9]; Mus musculus, Fig. 2i, 1 µM, replicates",27.8%
same,Cell viability (%),"[10]; 0,5 µM, 5 µM",16.61% and 12.02%
same,Cell viability (%),"[10]; 0,25 µM, 25 µM",73.65% and 55.49%
same,Cell viability (%),[10]; 1 µM,16.85% and 11.03%
same,viability at 1 µM,"[10]; Homo sapiens, 1 µM",12.7%
same,viability at 1 µM,"[11]; Homo sapiens, 96 h, PDO10, 1 µM, 4 days, read-out: Cell viability (%)",32.9%
same,Cell viability (%),"[11]; PDO10, 0.5 µM, 4 d, 0.5 µM",34.24% and 30.71% and 56.53%
same,Cell viability (%),"[11]; PDO10, 1 µM, 4 days, 1 µM",48.68% and 34.77%
